Each structure is given as a SMILES string.

The assay has as its target AtlE (Staphylococcus aureus, UniProt A0A0H3JT72). The experiment in a line: SPR binding affinity to AtlE (steady state 1:1 model). The protocol:
SPR experiments were performed using a Biacore T100 (GE Healthcare) equipped with a Series S sensor chip CM5 (GE Healthcare). PBS buffer (67 mM Na2HPO4, 12.5 mM KH2PO4, 70 mM NaCl, 0,05% P20, pH 7.4) was used for immobilisation of the protein. AtlE was produced as previously described[1] and attached to the surface of the chip by amine coupling. The surface of flow cells 1 and 2 was initially activated with a 10-min pulse of a 1:1 mixture of 0.4 M 1-ethyl-3–(3-dimethylaminopropyl)-carbodiimide hydrochloride and 0.1 M N-hydroxysuccinimide, according to manufacturer recommendations. AtlE was diluted into 10 mM sodium acetate buffer, pH 5.8, to a final concentration of 100 µg/mL, and injected twice for 180 s over the second flow cell. Both flow cells were blocked with a 7-min pulse of 1.0 M ethanolamine. The final immobilisation level was about 4100 RU. Screening was run at 25 °C using PBS (67 mM Na2HPO4, 12.5 mM KH2PO4 pH 7.4, 70 mM NaCl, 0.05% P20) supplemented with 1% or 5% DMSO (Merck) as the running buffer. Selected compounds from the virtual screening studies were tested at two different concentrations: 40 and 400 µM. Each compound was injected for 1 min at a flow-rate of 30 µL/min, and the dissociation was monitored for 30 s. […] KD values were determined by fitting of the data to a 1:1 steady state binding model.
Background: In SPR one partner is held on a chip, and binding of the other changes the refractive index at the surface.

AtlE, sequence (A0A0H3JT72 entry or part of it): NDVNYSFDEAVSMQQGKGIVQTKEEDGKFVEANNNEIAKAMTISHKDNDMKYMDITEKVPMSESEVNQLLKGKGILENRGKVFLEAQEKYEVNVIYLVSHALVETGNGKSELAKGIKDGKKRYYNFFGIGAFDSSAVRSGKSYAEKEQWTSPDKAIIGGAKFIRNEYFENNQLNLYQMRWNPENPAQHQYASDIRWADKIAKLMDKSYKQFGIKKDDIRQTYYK

`O=C(Nc1cccc(Cl)c1)NC1CCN(c2cccc(C(=O)N3CCc4ccccc4C3)c2)CC1` [Compound 10] came in with a Kd of 1.9 µM.

By Kd is commonly meant the concentration at which binding is half-saturated.
